From patent publication US8633251B2, “Derivatives of aminoalkanols, method of obtaining of aminoalkanols and their use” (Uniwersytet Jagiellonski, priority 2008, dated 2014)
Where two headings read alike, the source gives them in different places.

How the values were obtained:
[1] = system: seizures induced by sound; assay: Sound-induced seizures, Frings mice; type: in vivo
Description: (§1) For some compounds, a test for proconvulsant activity was performed (TTE test), as well as a test on activity in focal seizures (related with limbic system, 6 Hz test, hippocampal kindling). […] A test on inhibiting seizures induced by sound (Frings mice) was performed for compounds 12 and 26-28. Electrophysiology tests also have been performed, for seizures induced by bicuculline, picrotoxin, and NMDA. Prevention of (pilocarpine induced) status epilepticus has been noticed.

neurotoxicity (rotarod) = assay: Neurotoxicity test (TOX), rotarod, mice; type: in vivo; details: mice
[2] = system: LTG-resistant amygdala seizures; assay: Lamotrigine-resistant amygdala kindling, rats; type: in vivo; details: t=0.25 h, i.p.
[3] = system: seizures induced by picrotoxin; assay: Picrotoxin (PIC) induced seizures; type: in vivo
Description: as §1

[4] = system: maximal electroshock seizures; assay: Maximum Electroshock Seizure (MES) test, mice; type: in vivo
Outline: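 Mice received compound in methylcellulose i.p. or p.o. at 30, 100 and 300 mg/kg, with some tests at 10 and 3 mg/kg. At 0.5 or 4 h, after tetracaine eye-drops, current was delivered through corneal electrodes (60 Hz, 0.2 s, 50 mA). Groups were one mouse at 30 and 300 mg/kg and three at 100 mg/kg.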

[5] = system: seizures induced by bicuculline; assay: Bicuculline (BIC) induced seizures; type: in vivo
Description: as §1

[6] = system: formalin-induced pain (acute/neuropathic and inflammatory phase); assay: Formalin test, mice; type: in vivo
Description: The test was performed with use of formaldehyde as a substance causing pain (neuropathic and inflammatory afterwards) in mice, which were injected formalin into a hind limb.
During the first 10 min. after administration the mouse is licking the hind limb (acute phase), afterwards there is a short break in behavior change, and then the mouse licks its limb again for another 20-30 min. (inflammatory phase) (FIG. 3 for 12 and FIG. 4 for 26). The acute phase represents direct affection on the peripheral nerve and the inflammatory phase is related with secretion of inflammation mediators from the damaged tissue and nerves. The described model tests effectiveness of a substance to inhibit acute and chronic excessive neuronal discharges in response to peripheral nerves activation.

[7] = system: maximal electroshock seizures; assay: Maximum Electroshock Seizure (MES) test, rats; type: in vivo
Description: In order to define anticonvulsant activity, screening tests were performed, using animal models of seizures. […] The tests were based on administration of a compound to an animal and after certain time inducing state similar to epilepsy attack in human. Each substance (after dissolving in methylcellulose) was normally tested in doses 30, 100, and 300 mg/kg body weight (b.w.) (mice) or in 30 and 50 mg/kg b.w. (rats) in two possible routes of administration: intraperitoneal (i.p.) or oral (p.o.). […] […] (mice) the tests were also performed in doses 10 and 3 mg/kg b.w.
Maximum Electroshock Seizure (MES) test is an electric test, verifying activity towards generalized tonic-clonic seizures (grand mal epilepsy). […] Its procedure consists in administration to an animal a mentioned dose, […] (after anesthetic eye-drops: 0.5% tetracaine hydrochloride in 0.9% NaCl) and turning on electric current (60 Hz, 0.2 s, 50 mA (mice) or 150 mA (rats)). […]

[8] = system: voltage-gated sodium channels; assay: Electrophysiology, voltage-gated sodium channels; type: biochemical
[9] = system: hippocampal kindling seizures; assay: Electric hippocampal kindling, rats; type: in vivo
Description: as §1

[10] = system: metrazol seizure threshold; assay: Metrazol test, time to first twitch and first clonus; type: in vivo; details: for average time until the first twitch: control 30.07 (±1.23) min.; for average time from administration until the first clonus: control 34.38 (±0.94) min.
Description: In the MES test it inhibits seizures by inhibiting post-synaptic excitatory current. […] In the metrazol test average time until the first twitch was 27.3±0.2 min. for the dose 5 mg/kg b.w. and 27.6 (±0.3) min. for the dose 30 mg/kg b.w., comparing to the control 30.07 (±1.23) min. Average time from administration until the first clonus was 33.6 (±1.23) min. for the dose 5 mg/kg b.w. and 32.70 (±1.28) for the dose 30 mg/kg b.w., comparing to the control 34.38 (±0.94) min.

[11] = system: 6 Hz focal seizures (limbic system); assay: 6 Hz test, mice; type: in vivo; details: for ED50: Mus musculus, ip, 0.25 h
Description: as §1

[12] = dose 100 mg/kg b.w., time 0.5 h
[13] = dose 300 mg/kg b.w., time 0.5 h

## CCC(CO)NCCOc1c(C)cccc1Cl (centres unmarked) [Compound 26, R,S-2N-[(2-chlor-6-methylphenoxy)ethyl]amino-1-butanol]
[1]; mice
  ED50 (sound induced seizures, mice, 0.25 h): 6.05 mg/kg b.w.
Neurotoxicity (rotarod); [12]
  TOX, No. of animals exhibiting motor impairment/no. of used animals: 8/8
Neurotoxicity (rotarod); [13]
  TOX, No. of animals exhibiting motor impairment/no. of used animals: 4/4
[2]
  effective dose (LTG-resistant amygdala seizures): 15 mg/kg b.w.
[3]
  ED50 (PIC, 0.25 h): > 70 mg/kg b.w.
[4]; mice, dose 10 mg/kg b.w., time 0.5 h
  MES, No. of protected animals/No. of used animals: 2/4
[4]; mice, dose 30 mg/kg b.w., time 0.5 h
  MES, No. of protected animals/No. of used animals: 1/1
[4]; mice, dose 100 mg/kg b.w., time 0.5 h
  MES, No. of protected animals/No. of used animals: 1/1
[4]; mice, i.p., 0.25 h
  ED50 (MES, mice, i.p., 0.25 h): 21.44 mg/kg b.w.
[5]
  ED50 (BIC, 0.25 h): > 70 mg/kg b.w.
[6]; 21 mg/kg b.w.
  neuropathic pain inhibition (formalin test): 36%
[6]; mice, i.p., 21 mg/kg b.w., first ca. 10 min. after formalin, p<0.01
  acute phase of the formalin test: 64 % of control
[6]; mice, i.p., 21 mg/kg b.w., not statistically significant
  inflammatory phase of the formalin test: 72 % of control
[7]
  ED50 (MES, rats, i.p., 0.25 h): 7.3 mg/kg b.w.
  ED50 (MES, rats, p.o., 0.25 h): 67.69 mg/kg b.w.

## Cc1cccc(C)c1OCCN[C@H](C)CO [Compound 12, R-(−)-2N-[(2,6-dimethylphenoxy)ethyl]amino-1-propanol]
[1]; Frings mice
  ED50 (Frings mice, 0.25 h): 5.39 mg/kg b.w.
Neurotoxicity (rotarod); [12]
  TOX, No. of animals exhibiting motor impairment/no. of used animals: 8/8
Neurotoxicity (rotarod); dose 100 mg/kg b.w., time 4 h, 100 mg/kg
  TOX, No. of animals exhibiting motor impairment/no. of used animals: 1/3
Neurotoxicity (rotarod); [13]
  TOX, No. of animals exhibiting motor impairment/no. of used animals: 4/4
[3]
  ED50 (PIC, 0.25 h): > 75 mg/kg b.w.
[4]; Mus musculus, mice, dose 10 mg/kg b.w., time 0.5 h, read-out: MES, No. of protected animals/No. of used animals (converted)
  responders at 10 mg/kg: 25%
[4]; Mus musculus, mice, dose 30 mg/kg b.w., time 0.5 h, read-out: MES, No. of protected animals/No. of used animals
  responders at 30 mg/kg: 100%
[4]; Mus musculus, mice, dose 100 mg/kg b.w., time 0.5 h, read-out: MES, No. of protected animals/No. of used animals (converted)
  responders at 100 mg/kg: 100%
[4]; Mus musculus, mice, dose 100 mg/kg b.w., time 4 h, read-out: MES, No. of protected animals/No. of used animals (converted)
  responders at 100 mg/kg: 50%
[4]; female mice, i.p., 0.25 h
  ED50 (MES, female mice, i.p., 0.25 h): 22.28 mg/kg b.w.
[4]; mice
  activity in MES, mice: active
[4]; mice, i.p., 0.25 h
  ED50 (MES, mice, i.p., 0.25 h): 5.34 mg/kg b.w.
[4]; mice, p.o., 0.25 h
  ED50 (MES, mice, p.o., 0.25 h): 51.19 mg/kg b.w.
[8]
  effect on voltage-gated sodium channels: blocks voltage-gated sodium channels dependently on the voltage
[9]; 0.25 h after administration of 60 mg/kg b.w.
  activity in electric kindling (rats, hippocampus): reveals activity
[9]; rats, hippocampus, 0.25 h
  ED50 (kindling, rats, hippocampus, 0.25 h): > 30 mg/kg b.w.
[10]; dose 5 mg/kg b.w.
  average time until the first twitch: 27.3 ± 0.2 min
  average time from administration until the first clonus: 33.6 (±1.23) min.
[10]; dose 30 mg/kg b.w.
  average time until the first twitch: 27.6 (±0.3) min.
  average time from administration until the first clonus: 32.70 (±1.28)
[5]
  ED50 (BIC, 0.25 h): > 75 mg/kg b.w.
[6]; mice
  formalin test result (FIG. 3): inhibiting neuropathic pain (first 10 min. phase) and inflammatory pain (next 30 min. phase)
[11]; read-out: ED50 (6 Hz, female mice, i.p., 22 mA, 0.25 h)
  ED50: 7.06 mg/kg
[11]; read-out: ED50 (6 Hz, mice, i.p., 22 mA, 0.25 h)
  ED50: 43.8 mg/kg
[11]; female mice, i.p., 44 mA
  ED50 (6 Hz, female mice, i.p., 44 mA, 0.25 h): 41.3 mg/kg b.w.
[11]; mice, i.p., 44 mA
  ED50 (6 Hz, mice, i.p., 44 mA, 0.25 h): 30.02 mg/kg b.w.
[7]
  activity in MES, rats: active
  ED50 (MES, rats, i.p., 0.25 h): 7.43 mg/kg b.w.
  ED50 (MES, rats, p.o., 0.25 h): 28.60 mg/kg b.w.
